Laboratory results reported in BindingDB's records for doi:10.1021/acsmedchemlett.8b00255 (2018).

Biological target: T1, Interleukin-23 receptor (Homo sapiens, UniProt Q5VWK5)
T1 sequence (Q5VWK5 whole entry): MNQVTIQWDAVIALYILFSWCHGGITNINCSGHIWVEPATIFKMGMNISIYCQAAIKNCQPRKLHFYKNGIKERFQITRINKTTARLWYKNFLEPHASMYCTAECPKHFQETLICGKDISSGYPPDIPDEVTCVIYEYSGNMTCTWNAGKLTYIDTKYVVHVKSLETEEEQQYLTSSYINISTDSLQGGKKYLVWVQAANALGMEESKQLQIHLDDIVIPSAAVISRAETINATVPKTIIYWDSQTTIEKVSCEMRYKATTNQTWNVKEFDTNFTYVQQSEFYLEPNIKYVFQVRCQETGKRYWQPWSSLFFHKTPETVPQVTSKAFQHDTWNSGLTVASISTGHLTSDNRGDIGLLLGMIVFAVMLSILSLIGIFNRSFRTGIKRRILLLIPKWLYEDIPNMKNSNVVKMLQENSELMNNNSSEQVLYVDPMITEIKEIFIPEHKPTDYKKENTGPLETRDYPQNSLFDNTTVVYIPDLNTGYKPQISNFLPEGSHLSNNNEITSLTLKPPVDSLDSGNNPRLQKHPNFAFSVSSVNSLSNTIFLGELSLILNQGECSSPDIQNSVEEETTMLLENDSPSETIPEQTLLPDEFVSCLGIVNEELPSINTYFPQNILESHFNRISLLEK
Experiment: Binding affinity to recombinant human flag/His-tagged IL-23R (1 to 353 residues) expressed in HEK293F cells assessed as dissociation rate constant measured over 90 secs by surface plasmon resonance assay

koff: 0.0274 s⁻¹
Compound: CC(=O)N[C@H]1CCSC[C@@H](C(=O)N[C@@H](Cc2ccc(OCCN)cc2)C(=O)N[C@@H](Cc2c[nH]c3ccccc23)C(=O)N[C@@](C)(CCCCN)C(=O)N[C@@H](CCC(=O)O)C(=O)N[C@@H](CC(N)=O)C(=O)NCC(N)=O)NC(=O)[C@H](CCC(N)=O)NC(=O)[C@H](Cc2c[nH]c3ccccc23)NC(=O)[C@H]([C@@H](C)O)NC(=O)[C@H](CCC(N)=O)NC1=O
